Measured values as given in patent US8952024B2, “Herbicidal pyrimidone derivatives” (E I du Pont de Nemours and Company, priority 2009, dated 2015).

How the values were obtained:
Type in all cases: in vivo
[1] = system: wheat (Triticum aestivum); test: Test A pre-/postemergence plant response
In short: (§1)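 Plants grown from seed in a loam soil and sand mix received test compounds both as a preemergence soil spray and, at the same time, as a postemergence spray at the one- to two-leaf stage. Injury was judged visually against untreated controls roughly ten days later, 0 meaning no effect and 100 complete control.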

[2] = system: velvetleaf (Abutilon theophrasti); test: Test A pre-/postemergence plant response
In short: as §1

[3] = system: barnyardgrass (Echinochloa crus-galli); test: Test A pre-/postemergence plant response
In short: as §1

[4] = system: large crabgrass (Digitaria sanguinalis); test: Test A pre-/postemergence plant response
In short: as §1

corn (Zea mays) = test: Test A pre-/postemergence plant response
In short: as §1

[5] = system: pigweed (Amaranthus retroflexus); test: Test A pre-/postemergence plant response
In short: as §1

[6] = system: giant foxtail (Setaria faberii); test: Test A pre-/postemergence plant response
In short: as §1

[7] = system: morningglory (Ipomoea spp.); test: Test A pre-/postemergence plant response
In short: as §1

[8] = system: wheat (Triticum aestivum); test: Test B pre-/postemergence plant response; settings: for Wheat plant response rating (0 to 100 scale): 0 is no effect
In short: (§2)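 Each species received compound formulated in non-phytotoxic solvent with surfactant, either at planting into a loam and sand blend or as a foliar spray once plants reached 2 to 18 cm in peat-based medium. Plants stayed in the greenhouse 13 to 15 days before visual evaluation against controls, scored 0 (no effect) to 100 (complete control).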

[9] = system: cocklebur (Xanthium strumarium); test: Test B pre-/postemergence plant response; settings: for Cocklebur plant response rating (0 to 100 scale): 0 is no effect
In short: as §2

[10] = system: bermudagrass (Cynodon dactylon); test: Test B pre-/postemergence plant response; settings: for Bermudagrass plant response rating (0 to 100 scale): 0 is no effect
In short: as §2

[11] = Postemergence, 125 g ai/ha, 0 to 100 scale where 0 is no effect and 100 is complete control
[12] = Postemergence, 500 g ai/ha, 0 to 100 scale, 0 = no effect, 100 = complete control, approx. ten days
[13] = Preemergence, 125 g ai/ha, 0 to 100 scale, 0 = no effect, 100 = complete control
[14] = Preemergence, 500 g ai/ha, visual injury, 0 to 100 scale (0 no effect, 100 complete control), approx. ten days
[15] = 31 g ai/ha, postemergence, scale 0 to 100, 0 is no effect, 100 is complete control
[16] = 62 g ai/ha, postemergence, 100 is complete control, 13 to 15 days
[17] = Postemergence, 125 g ai/ha, visual rating after 13 to 15 days, scale 0 (no effect) to 100 (complete control)
[18] = Postemergence, 250 g ai/ha, scale 0 to 100 (0 no effect, 100 complete control)
[19] = Postemergence, 125 g ai/ha, scale 0 to 100 (0 no effect, 100 complete control)
[20] = Postemergence, 500 g ai/ha, visual injury, 0 to 100 scale (0 no effect, 100 complete control), approx. ten days
[21] = Preemergence, 500 g ai/ha, 0 to 100 scale, 0 = no effect, 100 = complete control
[22] = Postemergence, 31 g ai/ha, 0 to 100 scale (0 no effect, 100 complete control)
[23] = Postemergence, 250 g ai/ha, scale 0 to 100 (0 no effect, 100 complete control), 13 to 15 days
[24] = Postemergence, 62 g ai/ha, scale 0 to 100 (0 no effect, 100 complete control)

CCCc1ncc(C(=O)C2=C(O)CCCC2=O)c(=O)n1-c1cccc(C)c1 [Compound 79]
90: Plant response rating, Barnyardgrass [3, 12] | Plant response rating, Crabgrass, Large [4, 12]
10: Plant response rating, Corn (corn (Zea mays); [11]) | Plant response rating, Wheat [8, 15]
60: Plant response rating, Corn (corn (Zea mays); [12])
0: Plant response rating, Wheat [1, 11] | Plant response rating, Wheat [1, 13] | Plant response rating, Barnyardgrass [3, 13] | Plant response rating, Corn (corn (Zea mays); [13]) | Plant response rating, Corn (corn (Zea mays); [14]) | Plant response rating, Foxtail, Giant [6, 13] | Plant response rating, Morningglory [7, 13]
98: Cocklebur plant response rating (0 to 100 scale) [9, 16] | Plant response rating, Cocklebur [9, 17] | Plant response rating, Cocklebur [9, 18]
95: Plant response rating, Cocklebur [9, 15]
25: Wheat plant response rating (0 to 100 scale) [8, 16]
70: Plant response rating, Velvetleaf [2, 13] | Plant response rating, Barnyardgrass [3, 14]
85: Plant response rating, Bermudagrass [10, 17] | Plant response rating, Bermudagrass [10, 18]
35: Plant response rating, Wheat [8, 17]
50: Plant response rating, Wheat [1, 12] | Plant response rating, Crabgrass, Large [4, 13] | Plant response rating, Foxtail, Giant [6, 11] | Plant response rating, Foxtail, Giant [6, 14] | Plant response rating, Morningglory [7, 14]
80: Plant response rating, Barnyardgrass [3, 11] | Plant response rating, Crabgrass, Large [4, 11] | Plant response rating, Foxtail, Giant [6, 12] | Plant response rating, Bermudagrass [10, 15] | Bermudagrass plant response rating (0 to 100 scale) [10, 16]
40: Plant response rating, Wheat [8, 18]
100: Plant response rating, Velvetleaf [2, 11] | Plant response rating, Velvetleaf [2, 12] | Plant response rating, Velvetleaf [2, 14] | Plant response rating, Crabgrass, Large [4, 14] | Plant response rating, Pigweed [5, 11] | Plant response rating, Pigweed [5, 12] | Plant response rating, Pigweed [5, 13] | Plant response rating, Pigweed [5, 14] | Plant response rating, Morningglory [7, 11] | Plant response rating, Morningglory [7, 12]
30: Plant response rating, Wheat [1, 14]

COCCOCCn1c(-c2ccccc2)ncc(C(=O)C2=C(O)CCCC2=O)c1=O [Compound 91]
10: Plant response rating, Corn (corn (Zea mays); [12]) | Wheat plant response rating (0 to 100 scale) [8, 16]
50: Plant response rating, Wheat [1, 12] | Plant response rating, Wheat [8, 18]
90: Plant response rating, Barnyardgrass [3, 11] | Plant response rating, Crabgrass, Large [4, 11] | Plant response rating, Crabgrass, Large [4, 13] | Plant response rating, Pigweed [5, 13] | Plant response rating, Pigweed [5, 14]
100: Plant response rating, Velvetleaf [2, 11] | Plant response rating, Velvetleaf [2, 12] | Plant response rating, Velvetleaf [2, 13] | Plant response rating, Velvetleaf [2, 14] | Plant response rating, Barnyardgrass [3, 12] | Plant response rating, Barnyardgrass [3, 14] | Plant response rating, Crabgrass, Large [4, 12] | Plant response rating, Crabgrass, Large [4, 14] | Plant response rating, Pigweed [5, 11] | Plant response rating, Pigweed [5, 12] | Plant response rating, Morningglory [7, 11] | Plant response rating, Morningglory [7, 12]
65: Cocklebur plant response rating (0 to 100 scale) [9, 16]
40: Plant response rating, Foxtail, Giant [6, 13]
20: Plant response rating, Wheat [1, 14] | Plant response rating, Morningglory [7, 13] | Plant response rating, Cocklebur [9, 15]
80: Plant response rating, Foxtail, Giant [6, 11] | Plant response rating, Foxtail, Giant [6, 12] | Plant response rating, Morningglory [7, 14]
70: Plant response rating, Foxtail, Giant [6, 14]
95: Plant response rating, Cocklebur [9, 17] | Plant response rating, Cocklebur [9, 18] | Bermudagrass plant response rating (0 to 100 scale) [10, 16] | Plant response rating, Bermudagrass [10, 17] | Plant response rating, Bermudagrass [10, 18]
0: Plant response rating, Wheat [1, 11] | Plant response rating, Wheat [1, 13] | Plant response rating, Corn (corn (Zea mays); [11]) | Plant response rating, Corn (corn (Zea mays); [13]) | Plant response rating, Corn (corn (Zea mays); [14]) | Plant response rating, Wheat [8, 15]
60: Plant response rating, Barnyardgrass [3, 13]
75: Plant response rating, Bermudagrass [10, 15]

COCCn1c(-c2ccco2)ncc(C(=O)C2=C(O)CCCC2=O)c1=O [Compound 111]
100: Plant response rating, Velvetleaf [2, 11] | Plant response rating, Velvetleaf [2, 12] | Plant response rating, Velvetleaf [2, 14] | Plant response rating, Crabgrass, Large [4, 14] | Plant response rating, Pigweed [5, 11] | Plant response rating, Pigweed [5, 12] | Plant response rating, Pigweed [5, 13] | Plant response rating, Pigweed [5, 14] | Plant response rating, Morningglory [7, 11] | Plant response rating, Morningglory [7, 12] | Plant response rating, Cocklebur [9, 19] | Plant response rating, Cocklebur [9, 18] | Bermudagrass plant response rating (0 to 100 scale) [10, 16] | Plant response rating, Bermudagrass [10, 19] | Plant response rating, Bermudagrass [10, 18]
60: Plant response rating, Foxtail, Giant [6, 11]
0: Plant response rating, Wheat [1, 11] | Plant response rating, Wheat [1, 12] | Plant response rating, Wheat [1, 13] | Plant response rating, Wheat [1, 14] | Plant response rating, Corn (corn (Zea mays); [11]) | Plant response rating, Corn (corn (Zea mays); [13]) | Plant response rating, Corn (corn (Zea mays); [14]) | Wheat plant response rating (0 to 100 scale) [8, 16]
70: Plant response rating, Foxtail, Giant [6, 14]
30: Plant response rating, Barnyardgrass [3, 13] | Plant response rating, Corn (corn (Zea mays); [12])
98: Plant response rating, Cocklebur [9, 15] | Cocklebur plant response rating (0 to 100 scale) [9, 16]
5: Plant response rating, Wheat [8, 19]
80: Plant response rating, Morningglory [7, 14]
50: Plant response rating, Morningglory [7, 13]
90: Plant response rating, Velvetleaf [2, 13] | Plant response rating, Barnyardgrass [3, 11] | Plant response rating, Barnyardgrass [3, 12] | Plant response rating, Barnyardgrass [3, 14] | Plant response rating, Crabgrass, Large [4, 11] | Plant response rating, Crabgrass, Large [4, 12] | Plant response rating, Crabgrass, Large [4, 13] | Plant response rating, Foxtail, Giant [6, 12]
95: Plant response rating, Bermudagrass [10, 15]

CCCn1c(-c2ccccc2)ncc(C(=O)C2=C(O)C3CCC(C3)C2=O)c1=O (stereo not drawn) [Compound 226]
60: Corn plant response rating (corn (Zea mays); [20]) | Plant response rating, Morningglory [7, 13]
15: Plant response rating, Wheat [8, 24]
10: Plant response rating, Wheat [1, 21] | Plant response rating, Corn (corn (Zea mays); [11]) | Plant response rating, Wheat [8, 22]
70: Plant response rating, Foxtail, Giant [6, 13]
98: Plant response rating, Cocklebur [9, 22] | Plant response rating, Cocklebur [9, 24] | Plant response rating, Bermudagrass [10, 23]
50: Wheat plant response rating [1, 20]
90: Plant response rating, Barnyardgrass [3, 11] | Barnyardgrass plant response rating [3, 20] | Plant response rating, Crabgrass, Large [4, 11] | Plant response rating, Crabgrass, Large [4, 13] | Plant response rating, Foxtail, Giant [6, 11] | Foxtail, Giant plant response rating [6, 20] | Plant response rating, Foxtail, Giant [6, 21]
0: Plant response rating, Wheat [1, 11] | Plant response rating, Wheat [1, 13] | Plant response rating, Corn (corn (Zea mays); [13]) | Plant response rating, Corn (corn (Zea mays); [21])
85: Plant response rating, Bermudagrass [10, 19]
80: Plant response rating, Velvetleaf [2, 13] | Plant response rating, Morningglory [7, 21] | Plant response rating, Bermudagrass [10, 22] | Plant response rating, Bermudagrass [10, 24]
100: Plant response rating, Velvetleaf [2, 11] | Velvetleaf plant response rating [2, 20] | Plant response rating, Velvetleaf [2, 21] | Plant response rating, Barnyardgrass [3, 21] | Crabgrass, Large plant response rating [4, 20] | Plant response rating, Crabgrass, Large [4, 21] | Plant response rating, Pigweed [5, 11] | Pigweed plant response rating [5, 20] | Plant response rating, Pigweed [5, 13] | Plant response rating, Pigweed [5, 21] | Plant response rating, Morningglory [7, 11] | Morningglory plant response rating [7, 20] | Plant response rating, Cocklebur [9, 19] | Plant response rating, Cocklebur [9, 23]
30: Plant response rating, Barnyardgrass [3, 13] | Plant response rating, Wheat [8, 23]
